Assay [1] is described as follows: Inhibition of reverse transcriptase L100I mutant in HIV-1 infected in human MT4 cells assessed as reduction in virus-induced cytopathic effect incubated for 5 days by MTT assay. (In general: Protection from cytopathic effect is a common read-out in antiviral testing.)
Assay [2] in a line: Inhibition of reverse transcriptase E138K mutant in HIV-1 infected in human MT4 cells assessed as reduction in virus-induced cytopathic effect incubated for 5 days by MTT assay.
Assay [3] is described as follows: Inhibition of reverse transcriptase Y188L mutant in HIV-1 infected in human MT4 cells assessed as reduction in virus-induced cytopathic effect incubated for 5 days by MTT assay.
Assay [4] in a line: Inhibition of reverse transcriptase K103N mutant in HIV-1 infected in human MT4 cells assessed as reduction in virus-induced cytopathic effect incubated for 5 days by MTT assay.
Assay [5] can be described thus: Inhibition of reverse transcriptase F227L/V106A double mutant in HIV-1 infected in human MT4 cells assessed as reduction in virus-induced cytopathic effect incubated for 5 days by MTT assay.

Structures are written as SMILES.

The term EC50 denotes the midpoint of the concentration-response curve.

As for `Cc1cc(/C=C/C#N)cc(C)c1Oc1nc(Nc2ccc(N3CCN(S(N)(=O)=O)CC3)cc2)nc2sccc12`, the EC50 in assay [1] is 0.409 µM; in assay [2], 0.05 µM; in assay [3], 10.1 µM; in assay [4] it was 0.031 µM; in assay [5], 0.331 µM.

Consider `Cc1cc(/C=C/C#N)cc(C)c1Oc1nc(Nc2ccc(N3CCCC(NS(C)(=O)=O)C3)cc2)nc2ccsc12` (stereo unspecified), for which the EC50 in assay [1] is 6.82 µM; in assay [2], 1.28 µM; in assay [3], 150 µM; in assay [5], 16.8 µM.

Regarding `Cc1cc(/C=C/C#N)cc(C)c1Oc1nc(Nc2ccc(N3CCN(S(C)(=O)=O)CC3)cc2)nc2ccsc12`, the EC50 in assay [1] is 0.938 µM; in assay [2], 0.088 µM; in assay [3] it was 5.11 µM; in assay [4], 0.056 µM; in assay [5], 0.285 µM.

With `Cc1cc(/C=C/C#N)cc(C)c1Oc1nc(Nc2ccc(N3CCCC(NS(C)(=O)=O)C3)cc2)nc2sccc12` (stereo unspecified), the EC50 in assay [1] was 8.52 µM; in assay [2], 4.27 µM; in assay [4] it was 1.36 µM.

With `Cc1cc(/C=C/C#N)cc(C)c1Oc1nc(Nc2ccc(CN3CCN(S(C)(=O)=O)CC3)cc2)nc2sccc12`, the EC50 in assay [1] amounted to 0.387 µM; in assay [2] it was 0.162 µM; in assay [3], 9.41 µM; in assay [4] it was 0.054 µM; in assay [5], 1.64 µM.

Turning to `Cc1cc(/C=C/C#N)cc(C)c1Oc1nc(Nc2ccc(N3CCN(S(N)(=O)=O)CC3)cc2)nc2ccsc12`, the EC50 was 0.767 µM in assay [1]; 0.043 µM in assay [2]; 23.1 µM in assay [3]; 0.021 µM in assay [4]; 0.203 µM in assay [5].

Turning to `Cc1cc(/C=C/C#N)cc(C)c1Oc1nc(Nc2ccc(CN3CCN(S(C)(=O)=O)CC3)cc2)nc2ccsc12`, the EC50 in assay [1] was 1.56 µM; in assay [2], 0.983 µM; in assay [3], greater than 20.7 µM; in assay [4], 0.356 µM; in assay [5], 2.2 µM.

As for `Cc1cc(/C=C/C#N)cc(C)c1Oc1nc(Nc2ccc(CN3CCN(S(N)(=O)=O)CC3)cc2)nc2ccsc12`, the EC50 is 0.043 µM in assay [1], 0.026 µM in assay [2], 0.544 µM in assay [3] and 0.175 µM in assay [5].

With `Cc1cc(/C=C/C#N)cc(C)c1Oc1nc(Nc2ccc(N3CCN(S(C)(=O)=O)CC3)cc2)nc2sccc12`, the EC50 in assay [1] turned out to be 3.32 µM; in assay [2] it was 0.405 µM; in assay [3], 68.4 µM; in assay [4], 0.219 µM; in assay [5], 1.95 µM.

As to `Cc1cc(/C=C/C#N)cc(C)c1Oc1nc(Nc2ccc(N3CCCC(NS(N)(=O)=O)C3)cc2)nc2ccsc12` (stereo unspecified), the EC50 was found to be 1.66 µM in assay [1]; 0.123 µM in assay [2]; 6.75 µM in assay [3]; 0.102 µM in assay [4]; 0.381 µM in assay [5].

In the case of `Cc1cc(/C=C/C#N)cc(C)c1Oc1nc(Nc2ccc(CN3CCN(S(N)(=O)=O)CC3)cc2)nc2sccc12`, the EC50 in assay [1] stood at 0.015 µM; in assay [2] it was 0.025 µM; in assay [3], 0.877 µM; in assay [4] it was 0.007 µM; in assay [5], 0.369 µM.

`Cc1cc(/C=C/C#N)cc(C)c1Oc1nc(Nc2ccc(N3CCCC(NS(N)(=O)=O)C3)cc2)nc2sccc12` (stereo unspecified): the EC50 in assay [1] was 2.33 µM; in assay [2], 0.621 µM; in assay [3] it was 88.2 µM; in assay [4] it was 0.45 µM; in assay [5], 3.64 µM.
